Measurements: article PMC6891286, “Towards the Development of an In vivo Chemical Probe for Cyclin G Associated Kinase (GAK)” (Molecules, 2019)

What was measured:
Assay in all cases: KINOMEscan
Assay type in all cases: binding
Conditions in all cases: 35 at 1 µM; read-out: % inhibition
CLK2 = molecular target: T1, CLK2 (Homo sapiens, UniProt P49760)
T1 construct: purchased Eurofins DiscoverX (KINOMEscan)
Description: (§1) KinomeScan Assay on 35 was performed as previously described at EuroFins DiscoverX (Fremont, CA, USA).

ERK5 = molecular target: T2, ERK5 (Homo sapiens, UniProt Q13164)
T2 construct: purchased Eurofins DiscoverX (KINOMEscan)
Description: as §1

STK33 = molecular target: T3, STK33 (Homo sapiens, UniProt Q9BYT3)
T3 construct: purchased Eurofins DiscoverX (KINOMEscan)
T3 sequence (Q9BYT3 whole entry): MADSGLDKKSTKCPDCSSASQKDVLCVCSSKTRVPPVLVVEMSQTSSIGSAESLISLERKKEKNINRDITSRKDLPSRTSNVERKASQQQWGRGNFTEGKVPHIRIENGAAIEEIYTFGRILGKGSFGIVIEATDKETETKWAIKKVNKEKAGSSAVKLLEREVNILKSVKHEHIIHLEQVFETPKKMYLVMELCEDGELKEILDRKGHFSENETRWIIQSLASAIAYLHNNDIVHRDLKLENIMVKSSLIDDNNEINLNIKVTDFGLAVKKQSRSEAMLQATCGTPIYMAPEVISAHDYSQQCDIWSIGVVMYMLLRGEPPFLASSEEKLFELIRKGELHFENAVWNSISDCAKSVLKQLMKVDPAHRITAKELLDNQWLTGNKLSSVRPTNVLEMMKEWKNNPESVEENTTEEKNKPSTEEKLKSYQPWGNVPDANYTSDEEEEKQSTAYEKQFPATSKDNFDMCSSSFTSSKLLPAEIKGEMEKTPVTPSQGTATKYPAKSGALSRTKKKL
Description: as §1

CSNK1G3 = molecular target: T4, CSNK1G3 (Homo sapiens, UniProt Q9Y6M4)
T4 construct: purchased Eurofins DiscoverX (KINOMEscan)
Description: as §1

EPHB2 = molecular target: T5, EPHB2 (Homo sapiens, UniProt P29323)
T5 construct: purchased Eurofins DiscoverX (KINOMEscan)
Description: as §1

HUNK = molecular target: T6, HUNK (Homo sapiens, UniProt P57058)
T6 construct: purchased Eurofins DiscoverX (KINOMEscan)
Description: as §1

LKB1 = molecular target: T7, LKB1 (Homo sapiens, UniProt Q15831)
T7 construct: purchased Eurofins DiscoverX (KINOMEscan)
T7 sequence (Q15831 whole entry): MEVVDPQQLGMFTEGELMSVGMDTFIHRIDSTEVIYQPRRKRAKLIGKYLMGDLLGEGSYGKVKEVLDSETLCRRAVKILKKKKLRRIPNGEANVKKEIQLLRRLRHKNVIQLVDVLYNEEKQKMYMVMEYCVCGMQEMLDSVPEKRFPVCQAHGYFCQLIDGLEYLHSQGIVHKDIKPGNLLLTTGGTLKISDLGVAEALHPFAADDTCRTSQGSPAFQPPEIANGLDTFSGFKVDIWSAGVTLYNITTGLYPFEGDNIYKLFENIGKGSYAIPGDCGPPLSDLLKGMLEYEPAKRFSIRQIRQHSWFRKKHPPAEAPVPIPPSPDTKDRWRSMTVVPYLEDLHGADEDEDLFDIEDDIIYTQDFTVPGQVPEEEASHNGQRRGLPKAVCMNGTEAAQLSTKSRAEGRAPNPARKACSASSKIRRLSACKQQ
Description: as §1

[1] = molecular target: T8, RPS6KA4(Kin.Dom.1-N-terminal) (Homo sapiens, UniProt O75676)
T8 construct: RPS6KA4(Kin.Dom.1-N-terminal); purchased Eurofins DiscoverX (KINOMEscan)
Description: as §1

PHKG1 = molecular target: T9, PHKG1 (Homo sapiens, UniProt Q16816)
T9 construct: purchased Eurofins DiscoverX (KINOMEscan)
Description: as §1

WNK3 = molecular target: T10, WNK3 (Homo sapiens, UniProt Q9BYP7)
T10 construct: purchased Eurofins DiscoverX (KINOMEscan)
Description: as §1

CDC2L5 = molecular target: T11, CDC2L5 (Homo sapiens, UniProt Q14004)
T11 construct: purchased Eurofins DiscoverX (KINOMEscan)
Description: as §1

WEE1 = molecular target: T12, WEE1 (Homo sapiens, UniProt P30291)
T12 construct: purchased EuroFins DiscoverX (Fremont, CA, USA)
T12 sequence (P30291 whole entry): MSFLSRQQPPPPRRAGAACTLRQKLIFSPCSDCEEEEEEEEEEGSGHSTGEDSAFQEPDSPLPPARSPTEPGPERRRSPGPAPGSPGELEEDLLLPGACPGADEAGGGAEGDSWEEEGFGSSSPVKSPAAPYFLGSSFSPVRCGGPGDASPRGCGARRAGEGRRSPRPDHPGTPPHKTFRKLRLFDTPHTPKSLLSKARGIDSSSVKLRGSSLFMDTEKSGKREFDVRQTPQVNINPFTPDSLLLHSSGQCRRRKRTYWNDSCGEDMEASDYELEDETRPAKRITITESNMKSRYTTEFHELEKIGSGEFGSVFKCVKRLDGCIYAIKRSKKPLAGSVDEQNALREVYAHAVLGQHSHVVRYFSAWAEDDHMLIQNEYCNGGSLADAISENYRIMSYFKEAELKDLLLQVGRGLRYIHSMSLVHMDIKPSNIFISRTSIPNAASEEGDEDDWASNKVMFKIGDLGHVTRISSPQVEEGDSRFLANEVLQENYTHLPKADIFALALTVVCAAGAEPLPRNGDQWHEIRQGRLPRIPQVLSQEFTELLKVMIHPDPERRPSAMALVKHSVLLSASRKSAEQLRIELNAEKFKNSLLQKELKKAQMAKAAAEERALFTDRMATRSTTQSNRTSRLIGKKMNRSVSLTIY
Description: as §1

PIK3CA(E545K) = molecular target: T13, PIK3CA(E545K) (Homo sapiens, UniProt P42336, E545K)
T13 construct: purchased Eurofins DiscoverX (KINOMEscan)
T13 sequence (P42336 whole entry E545K): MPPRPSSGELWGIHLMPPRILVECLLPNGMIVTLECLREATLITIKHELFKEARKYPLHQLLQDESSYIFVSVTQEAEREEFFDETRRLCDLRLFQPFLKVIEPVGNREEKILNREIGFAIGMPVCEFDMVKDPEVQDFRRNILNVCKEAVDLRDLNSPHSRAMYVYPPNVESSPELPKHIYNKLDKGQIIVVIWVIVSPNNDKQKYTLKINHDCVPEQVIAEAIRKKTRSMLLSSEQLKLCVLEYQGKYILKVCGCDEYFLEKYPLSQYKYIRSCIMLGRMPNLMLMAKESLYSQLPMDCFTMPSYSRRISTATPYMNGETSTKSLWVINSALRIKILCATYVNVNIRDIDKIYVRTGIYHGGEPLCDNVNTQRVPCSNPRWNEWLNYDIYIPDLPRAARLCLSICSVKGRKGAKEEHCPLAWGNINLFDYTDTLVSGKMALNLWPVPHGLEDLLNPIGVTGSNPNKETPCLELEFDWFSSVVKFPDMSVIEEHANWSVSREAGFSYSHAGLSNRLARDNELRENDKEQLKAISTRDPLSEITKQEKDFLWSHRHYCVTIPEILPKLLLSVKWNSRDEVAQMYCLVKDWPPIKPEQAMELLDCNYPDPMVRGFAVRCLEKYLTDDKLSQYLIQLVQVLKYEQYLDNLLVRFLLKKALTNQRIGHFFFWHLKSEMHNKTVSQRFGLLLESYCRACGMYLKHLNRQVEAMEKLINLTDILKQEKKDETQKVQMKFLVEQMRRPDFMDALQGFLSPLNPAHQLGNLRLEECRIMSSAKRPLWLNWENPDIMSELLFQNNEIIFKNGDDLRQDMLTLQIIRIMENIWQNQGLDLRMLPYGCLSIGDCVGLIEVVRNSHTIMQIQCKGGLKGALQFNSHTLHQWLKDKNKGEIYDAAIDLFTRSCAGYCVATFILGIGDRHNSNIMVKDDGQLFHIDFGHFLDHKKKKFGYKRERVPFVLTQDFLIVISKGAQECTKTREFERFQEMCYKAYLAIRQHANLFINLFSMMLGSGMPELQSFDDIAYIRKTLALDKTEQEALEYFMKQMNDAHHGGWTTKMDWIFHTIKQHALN
Description: as §1

MEK6 = molecular target: T14, MEK6 (Homo sapiens, UniProt P52564)
T14 construct: purchased Eurofins DiscoverX (KINOMEscan)
Description: as §1

p38-alpha = molecular target: T15, p38-alpha (Homo sapiens, UniProt Q16539)
T15 construct: purchased Eurofins DiscoverX (KINOMEscan)
T15 sequence (Q16539 whole entry): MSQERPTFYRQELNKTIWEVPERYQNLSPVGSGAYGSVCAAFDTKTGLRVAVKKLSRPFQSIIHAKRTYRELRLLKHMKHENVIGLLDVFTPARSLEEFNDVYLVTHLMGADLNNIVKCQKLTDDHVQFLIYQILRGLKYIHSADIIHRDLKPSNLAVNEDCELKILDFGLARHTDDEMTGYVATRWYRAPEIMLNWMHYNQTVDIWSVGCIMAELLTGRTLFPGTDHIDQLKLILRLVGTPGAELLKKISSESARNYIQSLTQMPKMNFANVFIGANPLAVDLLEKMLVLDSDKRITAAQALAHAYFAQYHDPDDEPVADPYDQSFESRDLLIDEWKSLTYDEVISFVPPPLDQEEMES
Description: as §1

NEK11 = molecular target: T16, NEK11 (Homo sapiens, UniProt Q8NG66)
T16 construct: purchased Eurofins DiscoverX (KINOMEscan)
Description: as §1

EGFR(S752-I759del) = molecular target: T17, EGFR(S752-I759del) (Homo sapiens, UniProt P00533, DEL752-759)
T17 construct: purchased Eurofins DiscoverX (KINOMEscan)
Description: as §1

PIK3CA(E545A) = molecular target: T18, PIK3CA(E545A) (Homo sapiens, UniProt P42336, E545A)
T18 construct: purchased Eurofins DiscoverX (KINOMEscan)
T18 sequence (P42336 whole entry E545A): as the sequence (P42336 whole entry E545K) above, with K545A counted along it
Description: as §1

DLK = molecular target: T19, DLK (Homo sapiens, UniProt Q12852)
T19 construct: purchased Eurofins DiscoverX (KINOMEscan)
T19 sequence (Q12852 whole entry): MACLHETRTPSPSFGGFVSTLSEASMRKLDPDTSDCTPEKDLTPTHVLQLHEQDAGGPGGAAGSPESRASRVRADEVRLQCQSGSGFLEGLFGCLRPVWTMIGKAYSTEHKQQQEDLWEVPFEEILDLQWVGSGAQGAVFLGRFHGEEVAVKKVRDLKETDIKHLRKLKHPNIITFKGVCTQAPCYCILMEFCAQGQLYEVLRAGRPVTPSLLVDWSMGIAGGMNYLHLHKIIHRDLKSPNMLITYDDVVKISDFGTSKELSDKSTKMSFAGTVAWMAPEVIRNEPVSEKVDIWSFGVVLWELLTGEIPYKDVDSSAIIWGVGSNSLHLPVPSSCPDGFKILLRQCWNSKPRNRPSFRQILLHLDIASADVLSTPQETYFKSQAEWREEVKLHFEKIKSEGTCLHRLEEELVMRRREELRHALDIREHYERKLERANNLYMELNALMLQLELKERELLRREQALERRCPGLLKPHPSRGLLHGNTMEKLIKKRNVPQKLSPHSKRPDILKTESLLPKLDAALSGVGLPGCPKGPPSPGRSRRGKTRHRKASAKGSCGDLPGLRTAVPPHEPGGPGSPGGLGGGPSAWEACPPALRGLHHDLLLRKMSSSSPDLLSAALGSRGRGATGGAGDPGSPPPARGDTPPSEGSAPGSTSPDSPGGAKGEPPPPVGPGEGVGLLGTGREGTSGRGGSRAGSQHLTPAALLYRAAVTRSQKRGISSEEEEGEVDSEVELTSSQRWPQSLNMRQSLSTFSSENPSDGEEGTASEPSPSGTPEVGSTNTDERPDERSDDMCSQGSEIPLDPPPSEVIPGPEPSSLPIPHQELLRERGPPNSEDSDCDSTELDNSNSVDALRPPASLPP
Description: as §1

EPHB6 = molecular target: T20, EPHB6 (Homo sapiens, UniProt O15197)
T20 construct: purchased Eurofins DiscoverX (KINOMEscan)
Description: as §1

SNRK = molecular target: T21, SNRK (Homo sapiens, UniProt Q9NRH2)
T21 construct: purchased Eurofins DiscoverX (KINOMEscan)
Description: as §1

CAMK4 = molecular target: T22, CAMK4 (Homo sapiens, UniProt Q16566)
T22 construct: purchased Eurofins DiscoverX (KINOMEscan)
Description: as §1

DAPK2 = molecular target: T23, DAPK2 (Homo sapiens, UniProt Q9UIK4)
T23 construct: purchased Eurofins DiscoverX (KINOMEscan)
Description: as §1

GRK2 = molecular target: T24, GRK2 (Homo sapiens, UniProt P25098)
T24 construct: purchased Eurofins DiscoverX (KINOMEscan)
Description: as §1

CDK4 = molecular target: T25, CDK4 (Homo sapiens, UniProt P11802)
T25 construct: purchased Eurofins DiscoverX (KINOMEscan)
Description: as §1

CAMK1B = molecular target: T26, CAMK1B (Homo sapiens, UniProt Q6P2M8)
T26 construct: purchased Eurofins DiscoverX (KINOMEscan)
Description: as §1

ULK3 = molecular target: T27, ULK3 (Homo sapiens, UniProt Q6PHR2)
T27 construct: purchased Eurofins DiscoverX (KINOMEscan)
Description: as §1

MAP4K5 = molecular target: T28, MAP4K5 (Homo sapiens, UniProt Q9Y4K4)
T28 construct: purchased Eurofins DiscoverX (KINOMEscan)
Description: as §1

PRKD1 = molecular target: T29, PRKD1 (Homo sapiens, UniProt Q15139)
T29 construct: purchased Eurofins DiscoverX (KINOMEscan)
Description: as §1

CSNK1A1 = molecular target: T30, CSNK1A1 (Homo sapiens, UniProt P48729)
T30 construct: purchased Eurofins DiscoverX (KINOMEscan)
Description: as §1

FYN = molecular target: T31, FYN (Homo sapiens, UniProt P06241)
T31 construct: purchased Eurofins DiscoverX (KINOMEscan)
Description: as §1

MAP3K3 = molecular target: T32, MAP3K3 (Homo sapiens, UniProt Q99759)
T32 construct: purchased Eurofins DiscoverX (KINOMEscan)
T32 sequence (Q99759 whole entry): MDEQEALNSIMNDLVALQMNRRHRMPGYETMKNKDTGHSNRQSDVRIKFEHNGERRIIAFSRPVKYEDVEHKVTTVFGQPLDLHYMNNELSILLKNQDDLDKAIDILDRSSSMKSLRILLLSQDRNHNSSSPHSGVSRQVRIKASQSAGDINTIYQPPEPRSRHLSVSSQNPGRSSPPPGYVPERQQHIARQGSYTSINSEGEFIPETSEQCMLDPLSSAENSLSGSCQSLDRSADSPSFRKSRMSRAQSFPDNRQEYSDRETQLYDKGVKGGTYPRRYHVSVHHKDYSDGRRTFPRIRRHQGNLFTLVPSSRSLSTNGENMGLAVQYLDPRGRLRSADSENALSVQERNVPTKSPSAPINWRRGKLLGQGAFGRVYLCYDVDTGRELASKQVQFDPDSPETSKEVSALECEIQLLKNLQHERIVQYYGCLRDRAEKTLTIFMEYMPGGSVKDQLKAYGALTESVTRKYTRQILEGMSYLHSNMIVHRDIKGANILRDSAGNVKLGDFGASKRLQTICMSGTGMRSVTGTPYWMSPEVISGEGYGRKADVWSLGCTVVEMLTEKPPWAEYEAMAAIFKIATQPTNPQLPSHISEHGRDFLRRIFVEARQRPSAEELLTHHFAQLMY
Description: as §1

CDKL2 = molecular target: T33, CDKL2 (Homo sapiens, UniProt Q92772)
T33 construct: purchased Eurofins DiscoverX (KINOMEscan)
Description: as §1

ABL2 = molecular target: T34, ABL2 (Homo sapiens, UniProt P42684)
T34 construct: purchased Eurofins DiscoverX (KINOMEscan)
Description: as §1

MAP3K15 = molecular target: T35, MAP3K15 (Homo sapiens, UniProt Q6ZN16)
T35 construct: purchased Eurofins DiscoverX (KINOMEscan)
Description: as §1

MLK2 = molecular target: T36, MLK2 (Homo sapiens, UniProt Q02779)
T36 construct: purchased Eurofins DiscoverX (KINOMEscan)
Description: as §1

AXL = molecular target: T37, AXL (Homo sapiens, UniProt P30530)
T37 construct: purchased Eurofins DiscoverX (KINOMEscan)
Description: as §1

TRPM6 = molecular target: T38, TRPM6 (Homo sapiens, UniProt Q9BX84)
T38 construct: purchased Eurofins DiscoverX (KINOMEscan)
Description: as §1

KIT(A829P) = molecular target: T39, KIT(A829P) (Homo sapiens, UniProt P10721, A829P)
T39 construct: purchased Eurofins DiscoverX (KINOMEscan)
Description: as §1

[2] = molecular target: T40, ABL1(H396P)-nonphosphorylated (Homo sapiens, UniProt P00519, H396P)
T40 construct: purchased Eurofins DiscoverX (KINOMEscan)
Description: as §1

AURKA = molecular target: T41, AURKA (Homo sapiens, UniProt O14965)
T41 construct: purchased Eurofins DiscoverX (KINOMEscan)
Description: as §1

CSNK1A1L = molecular target: T42, CSNK1A1L (Homo sapiens, UniProt Q8N752)
T42 construct: purchased Eurofins DiscoverX (KINOMEscan)
T42 sequence (Q8N752 whole entry): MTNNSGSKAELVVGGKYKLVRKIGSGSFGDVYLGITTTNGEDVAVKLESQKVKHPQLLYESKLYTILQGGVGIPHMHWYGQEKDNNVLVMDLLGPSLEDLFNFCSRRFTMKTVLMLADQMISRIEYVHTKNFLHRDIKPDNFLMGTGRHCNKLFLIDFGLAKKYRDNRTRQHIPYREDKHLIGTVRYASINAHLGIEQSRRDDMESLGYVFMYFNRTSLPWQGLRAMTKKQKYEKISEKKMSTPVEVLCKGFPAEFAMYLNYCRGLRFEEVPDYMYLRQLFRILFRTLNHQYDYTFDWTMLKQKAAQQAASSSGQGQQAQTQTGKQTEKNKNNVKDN
Description: as §1

Work on `Brc1ccc2nccc(Nc3ccc4cn[nH]c4c3)c2c1` [Compound 35, 6-Bromo-N-(1H-indazol-6-yl)quinolin-4-amine] yielded an activity at 1 µM (CLK2) of 86%, an activity at 1 µM (ERK5) of 100% and an activity at 1 µM (STK33) of 100%. For the same compound, the activity at 1 µM (CSNK1G3) was 100%, the activity at 1 µM (EPHB2) was 100% and the activity at 1 µM (HUNK) was 100%. The activity at 1 µM (LKB1) was 100%, the activity at 1 µM [1] was 100% and the activity at 1 µM (PHKG1) was 100%. For the same compound, the activity at 1 µM (WNK3) was 92%, the activity at 1 µM (CDC2L5) was 73% and the activity at 1 µM (WEE1) was 100%. For the same compound, the activity at 1 µM (PIK3CA(E545K)) was 66%, the activity at 1 µM (MEK6) was 100% and the activity at 1 µM (p38-alpha) was 100%. It also gave an activity at 1 µM (NEK11) of 100%, an activity at 1 µM (EGFR(S752-I759del)) of 89% and an activity at 1 µM (PIK3CA(E545A)) of 98%. For the same compound, the activity at 1 µM (DLK) was 100%, the activity at 1 µM (EPHB6) was 100% and the activity at 1 µM (SNRK) was 100%. It also gave an activity at 1 µM (CAMK4) of 100%, an activity at 1 µM (DAPK2) of 100% and an activity at 1 µM (GRK2) of 100%. It also gave an activity at 1 µM (CDK4) of 78%, an activity at 1 µM (CAMK1B) of 92% and an activity at 1 µM (ULK3) of 81%. The activity at 1 µM (MAP4K5) was 100%, the activity at 1 µM (PRKD1) was 100% and the activity at 1 µM (CSNK1A1) was 62%. The activity at 1 µM (FYN) was 100%, the activity at 1 µM (MAP3K3) was 100% and the activity at 1 µM (CDKL2) was 100%. It also gave an activity at 1 µM (ABL2) of 88%, an activity at 1 µM (MAP3K15) of 98% and an activity at 1 µM (MLK2) of 100%. The activity at 1 µM (AXL) was 100%, the activity at 1 µM (TRPM6) was 100% and the activity at 1 µM (KIT(A829P)) was 100%. It also gave an activity at 1 µM [2] of 86%, an activity at 1 µM (AURKA) of 100% and an activity at 1 µM (CSNK1A1L) of 96%.
